Data reported in US8314077B2 (priority 1996, dated 2012).
Like-named read-outs stand apart in the source and are kept apart here.

Columns and labels:
[1] = in vivo; cited from earlier work
CNS SF-539 = assay: cells; type: cell-based; conditions: for TGI: concentration at which PG is 0, CNS SF-539
Method: (§1) Conjugates 1 and 2 were sent to the United States National Cancer Institute (NCI) for screening in the NCI's anticancer screening program. The conjugates were provided in ethanol (approximately 40 mg analog/2 ml ethanol). […] Instructions were provided to store at 4° C. and to open the vials only when ready for immediate experimental use. Instructions also were provided to use the ethanol solutions containing the conjugates directly or to dissolve the analogs further in DMSO (dimethylsulfoxide) at appropriate concentrations, with vortexing if necessary for adequate dispersal.
(§2) The activities of conjugates 1 and 2 were tested against 57 cancer cell lines. […] To understand the data, reference is made to the guides provided by the NCI, excerpted as follows:
(§3) The Calculated Measurement of Effect: Percentage Growth (PG)
(§4) The measured effect of the compound on a cell line is currently calculated according to one or the other of the following two expressions:
(§5) If (Mean ODtext−Mean ODtzero)≧0, then PG=100×(Mean ODtest−Mean ODtzero)/(Mean ODctrl−Mean Odtzero)
(§6) If (Mean ODtest−Mean ODtzero)<0, then PG=100×(Mean ODtest−Mean Odtzero)/Mean Odtzero
(§7) Where: • Mean ODtzero=The average of optical density measurements of SRB-derived color just before exposure of cells to the test compound. • Mean ODtest=The average of optical density measurements of SRB-derived color after 48 hours exposure of cells to the test compound. • Mean ODctrl=The average of optical density measurements of SRB-derived color after 48 hours with no exposure of cells to the test compound.
(§8) Experimental data was collected against each cell line. . . . . Each concentration is expressed as the log10 (molar or μg/ml) . . . . The response parameters GI50, TGI, and LC50 are interpolated values representing the concentrations at which the PG is +50, 0, and −50, respectively. Sometimes these response parameters cannot be obtained by interpolation. If, for instance, all of the PGs in a given row exceed +50, then none of the three parameters can be obtained by interpolation. In such a case, the value given for each response parameter is the highest concentration tested. This practice is extended similarly to the other possible situations where a response parameter cannot be obtained by interpolation.
(§9) The dose-response curve page of the data package is created by plotting the PGs against the log10 of the corresponding concentration for every cell line. The cell line curves are grouped by subpanel. Horizontal lines are provided at the PG values of +50, 0, and −50. The concentrations corresponding to points where the curves cross these lines are the GI50, TGI and LC50, respectively.

CNSSF 268 = assay: cells; type: cell-based
Method: as §1, §2, §3, §4, §5, §6, §7, §8, §9

57 cancer cell lines = type: cell-based; conditions: for potency relative to Taxol: many cell lines tested; for pattern of activity versus Taxol (NCI statistical analysis): statistical analysis designed by the NCI
Method: Conjugates 1 and 2 were sent to the United States National Cancer Institute (NCI) for screening in the NCI's anticancer screening program. The conjugates were provided in ethanol (approximately 40 mg analog/2 ml ethanol). The conjugates were sealed in vials under argon to avoid exposure of the conjugates to oxygen because the conjugates were believed to be sensitive to oxygen. Instructions were provided to store at 4° C. and to open the vials only when ready for immediate experimental use. Instructions also were provided to use the ethanol solutions containing the conjugates directly or to dissolve the analogs further in DMSO (dimethylsulfoxide) at appropriate concentrations, with vortexing if necessary for adequate dispersal.
as §2, §3, §4, §5, §6, §7, §8, §9

[2] = tested on: non-small cell lung cancer lines H522 and H460; type: cell-based
Method: as §1, §2, §3, §4, §5, §6, §7, §8, §9

[3] = tested on: leukemia cancer cell lines; type: cell-based; conditions: six lines for the conjugates, four lines for Taxol; FIGS. 1, 10 and 19
Method: as §1, §2, §3, §4, §5, §6, §7, §8, §9

CNSU251 = type: cell-based
Method: as §1, §2, §3, §4, §5, §6, §7, §8, §9

[4] = tested on: MDA-N and MDA-MB-435 breast cancer cell lines; type: cell-based; conditions: all concentrations tested
Method: as §1, §2, §3, §4, §5, §6, §7, §8, §9

Structure (SMILES)	entry into the brain [1]	TGI (CNS SF-539; 48 hours exposure)	GI50 (CNS SF-539; concentration at which PG is +50, 48 hours exposure, CNS SF 539)	GI50 (CNSSF 268; concentration at which PG is +50, 48 hours exposure, CNSSF 268)	average GI50 across all cell lines tested (57 cancer cell lines; average over cell lines, −10 used where Taxol was active at −10.0)	difference in effectiveness, H522 versus H460, at TGI [2]	effectiveness against leukemia cell lines [3]	GI50 (CNS SF-539; CNSSF-539, concentration at which PG is +50, 48 hours exposure, CNS SF 539, read-out: GI50 (converted))	GI50 (CNSSF 268; concentration at which PG is +50, 48 hours exposure, CNSSF 268, read-out: GI50 (converted))	potency relative to Taxol (57 cancer cell lines)	pattern of activity versus Taxol (NCI statistical analysis) (57 cancer cell lines)	effectiveness at TGI against CNSU251 relative to other CNS cell lines (CNSU251)	relative effectiveness against H460 versus H522 at TGI [2]	relative activity toward MDA-N versus MDA-MB-435 [4]	GI50 (CNS SF-539; CNSSF-539, 48 h)	GI50 (CNSSF 268; 48 h)
CC(=O)O[C@H]1C(=O)[C@@]2(C)[C@H]([C@H](OC(=O)c3ccccc3)[C@]3(O)C[C@H](OC(=O)[C@H](O)[C@@H](NC(=O)c4ccccc4)c4ccccc4)C(C)=C1C3(C)C)[C@]1(OC(C)=O)CO[C@@H]1C[C@@H]2O [Taxol, paclitaxel, reference compound]	does not get into the brain	−6.95 log10 (molar or μg/ml)	−7.52 log10 (molar or μg/ml)	less than −10.0 log10 (molar or μg/ml)	at least −9.19 log10 (molar or μg/ml)	about 3 logs	somewhat effective									
CC/C=C\C/C=C\C/C=C\C/C=C\C/C=C\C/C=C\CCC(=O)OC(C(=O)OC1C[C@@]2(O)[C@@H](OC(=O)c3ccccc3)[C@@H]3[C@]4(OC(C)=O)CO[C@@H]4C[C@H](O)[C@@]3(C)C(=O)[C@H](OC(C)=O)C(=C1C)C2(C)C)[C@@H](NC(=O)c1ccccc1)c1ccccc1 (stereo partly shown) [conjugate 1]		−5.13 log10 (molar or μg/ml)					not very effective	0.603 µM	4.37 µM	one thousand to ten thousand times less potent than Taxol	statistically different	most effective	slightly more effective against H460 than H522	more effective against MDA-N than MDA-MB-435		
CC/C=C\C/C=C\C/C=C\C/C=C\C/C=C\C/C=C\CCC(=O)O[C@H]1C[C@H]2OC[C@@]2(OC(C)=O)[C@H]2[C@H](OC(=O)c3ccccc3)[C@]3(O)CC(OC(=O)C(O)[C@@H](NC(=O)c4ccccc4)c4ccccc4)C(C)=C([C@@H](OC(C)=O)C(=O)[C@]12C)C3(C)C (stereo partly shown) [conjugate 2]		−5.53 log10 (molar or μg/ml)					not very effective			one thousand to ten thousand times less potent than Taxol	statistically different	very effective	slightly more effective against H460 than H522	more effective against MDA-N than MDA-MB-435	2.75 µM	5.25 µM
